Measurements taken from patent US10059669B2, “2-amino-3,5-difluoro-3,6-dimethyl-6-phenyl-3,4,5,6-tetrahydropyridines as BACE1 inhibitors for treating alzheimer's disease” (H. Lundbeck A/S, priority 2014, dated 2018).

Key:
[1] = target: T1, BACE1 (Homo sapiens (Human), UniProt P56817); test: BACE1 binding assay (SPA-based radioligand binding); settings: pH 4.5, 10 nM radioligand, Ki calculated from IC50
Procedure: The binding assay was performed as SPA-based assay using a biotinylated form of human BACE1 recombinantly expressed and subsequently purified from Freestyle HEK293 cells. The binding assay was run in a 50 mM sodium acetate buffer, pH 4.5 containing 50 mM NaCl and 0.03% Tween-20 in white clear bottom 384 plates (Corning #3653). 10 nM (final concentration) radioligand ([^3H]—N-((1S,2R)-1-benzyl-3-cyclopropylamino-2-hydroxy-propyl)-5-(methanesulfonyl-methyl-amino)-N—((R)-1-phenyl-ethyl)-isophthalamide) (TRQ11569 purchased from GE Healthcare) was mixed with test compound at a given concentration, 6 nM (final concentration) human BACE1 and 25 μg Streptavidin coated PVT core SPA beads (RPNQ0007, GE Healthcare Life Sciences) in a total volume of 40 μl. Several concentrations of each test compound were tested in the assay for IC50 determination. The plates were incubated for one hour at room temperature and counted in a Wallac Trilux counter. Total and non-specific binding were determined using buffer and 1 μM (final concentration) of the high affinity BACE1 reference inhibitor (S)-6-[3-chloro-5-(5-prop-1-ynyl-pyridin-3-yl)-thiophen-2-yl]-2-imino-3,6-dimethyl-tetrahydro-pyrimidin-4-one, respectively. For each test compound, a IC50 value (the concentration mediating 50% inhibition of the specific binding of the radioligand) was determined from concentration-response curve and used to calculate the Ki from the equation Ki=IC50/(1+L/Kd), where L and Kd are the final concentration of the radioligand used in the assay and the dissociation constant of the radioligand, respectively. The Kd of the radioligand was determined from saturation binding experiments.

[2] = target: T1, BACE1; test: BACE1 efficacy assay (FRET-based, commercial BACE1 kit); assay type: biochemical; settings: 10 μM test compound
Procedure: The efficacy assay was performed as a FRET-based assay using a commercially available BACE1 kit (Life Technologies, P2985). 2 μl test compound at 10 μM (final concentration) and 15 μl BACE1 enzyme from the kit (final concentration 3 nM) were preincubated for 15 minutes at room temperature before addition of 15 μl of substrate from the kit (250 nM final concentration) and incubated for additional 90 minutes at room temperature. The assay plate was subsequently read in a Pherastar (Ex540/Em590). The enzyme activity observed in presence of test compound were normalized to the enzyme activity observed in presence of buffer and 10 μM (final concentration) of the high affinity BACE1 reference inhibitor (S)-6-[3-Chloro-5-(5-prop-1-ynyl-pyridin-3-yl)-thiophen-2-yl]-2-imino-3,6-dimethyl-tetra-hydropyrimidin-4-one, respectively. The efficacy of the test compounds was evaluated at 10 μM (final concentration) and defined as the percent inhibition of the enzyme activity using the equation % inhibition=100%−normalized enzyme activity in percent.

[3] = tested on: P-gp (MDR1); test: MDCK-MDR1 assay (permeability, efflux ratio); assay type: in vitro ADME; settings: dog, Papp BA/Papp AB, 60-minute incubation, Pgp substrate when ≥2
Procedure: The permeability of the test compounds was assessed in MDCK-MDR1 cells that were cultured to confluency (4-6 days) in a 96 transwell plate. Test compounds were diluted with the transport buffer (HBSS+1% BSA) to a concentration of 0.5 μM and applied to the apical or basolateral side of the cell monolayer. Permeation of the test compounds from A to B direction or B to A direction was determined in triplicate over a 60-minute incubation time at 37° C. and 5% CO2 with a relative humidity of 95%. Test compounds were quantified by LC-MS/MS analysis based on the peaks area ratios of analyte/IS in both the receiver and donor wells of the transwell plate.
The apparent permeability coefficient Papp (cm/s) was calculated using the equation: Papp=(dCr/dt)×Vr/(A×C0)
Where dCr/dt is the cumulative concentration of compound in the receiver chamber as a function of time (M/s); Vr is the solution volume in the receiver chamber (0.05 mL on the apical side; 0.25 mL on the basolateral side); A is the surface area for the transport, i.e. 0.0804 cm^2 for the area of the monolayer; C0 is the initial concentration in the donor chamber (VIM).
Compounds are classified Pgp substrates when efflux ratio (Papp BA/Papp AB) is ≥2.

T1 sequence (P56817 46-501): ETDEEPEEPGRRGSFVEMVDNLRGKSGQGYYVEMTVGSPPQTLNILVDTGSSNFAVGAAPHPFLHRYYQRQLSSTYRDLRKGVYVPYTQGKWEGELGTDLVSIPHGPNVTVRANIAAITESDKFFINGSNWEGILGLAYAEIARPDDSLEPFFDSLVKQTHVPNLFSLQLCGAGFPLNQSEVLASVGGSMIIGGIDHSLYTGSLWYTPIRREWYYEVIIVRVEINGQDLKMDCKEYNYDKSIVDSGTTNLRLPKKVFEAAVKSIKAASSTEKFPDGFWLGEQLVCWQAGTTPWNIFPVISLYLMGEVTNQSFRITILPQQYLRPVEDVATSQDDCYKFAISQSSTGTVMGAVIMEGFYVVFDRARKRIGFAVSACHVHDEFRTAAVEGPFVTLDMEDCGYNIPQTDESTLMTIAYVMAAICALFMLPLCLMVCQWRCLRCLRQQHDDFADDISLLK

Row | Ki [1] [µM] | inhibition at 10 µM [2] [%] | efflux ratio at 60 min, 0.5 μM [3] | SMILES
1 | 0.023 | 102 | 0.96 | COc1ccc(C(=O)Nc2ccc(F)c([C@@]3(C)N=C(N)[C@@](C)(F)C[C@@H]3F)c2)nc1 [Compound 3, N-(3-((2R,3S,5S)-6-amino-3,5-difluoro-2,5-dimethyl-2,3,4,5-tetrahydropyridin-2-yl)-4-fluorophenyl)-5-methoxypicolinamide]
2 | 0.021 | 106 | 0.85 | [2H]C([2H])([2H])Oc1cnc(C(=O)Nc2ccc(F)c([C@@]3(C)N=C(N)[C@@](C)(F)C[C@@H]3F)c2)cn1 [Compound 20, N-(3-((2R,3S,5S)-6-amino-3,5-difluoro-2,5-dimethyl-2,3,4,5-tetrahydropyridin-2-yl)-4-fluorophenyl)-5-(methoxy-d3)pyrazine-2-carboxamide]
3 | 0.02 | 106 | 0.79 | [2H]C([2H])([2H])Oc1ccc(C(=O)Nc2ccc(F)c([C@@]3(C)N=C(N)[C@@](C)(F)C[C@@H]3F)c2)nc1 [Compound 19, N-(3-((2R,3S,5S)-6-amino-3,5-difluoro-2,5-dimethyl-2,3,4,5-tetrahydropyridin-2-yl)-4-fluorophenyl)-5-(methoxy-d3)picolinamide]
